Experimental data as given in patent publication US6410527B1, “Method of treating obsessive compulsive disorders, somatoform disorders, dissociative disorders, eating disorders, impulse control disorders, and autism” (Schering Corporation, priority 1998, dated 2002).
Counter-ions that a name gives are not always drawn.

Assays:
[1] = test system: patient diagnosed with obsessive-compulsive disorder; assay: Administration of SCH 39166 capsules to a patient with obsessive-compulsive disorder; assay type: in vivo, human; settings: capsules of Example 1 containing 5.0 mg SCH 39166, once a day, six months
[2] = test system: patient diagnosed as having autism; assay: Administration of SCH 39166 capsules to a patient with autism; assay type: in vivo, human; settings: capsules of Example 1 containing 25.0 mg SCH 39166, once a day, six months

CN1CCc2cc(Cl)c(O)cc2[C@H]2c3ccccc3CC[C@@H]21 [SCH 39166, (−)-trans-6,7,7a, 8,9,13b-hexahydro-3-chloro-2-hydroxy-N-methyl-5-H-benzo[d]naphtho{2,1-b}azepine HCl]
observable symptoms of the disorder [1]: reducing or eliminating the observable symptoms of the disorder | observable symptoms of the disorder [2]: reducing or eliminating the observable symptoms of the disorder
